Source: US20080108611A1, “SUBSTITUTED THIENOPYRIMIDINE KINASE INHIBITORS” (priority 2006, published 2008)

Target: T1, EGFR (Homo sapiens, UniProt P00533)
T1 construct: The intracellular portion of EGFR started at nucleotide 2189 (corresponding to amino acid 667) and ended at the termination codon; made in house; host or cells: Sf9 insect cells (baculovirus)
Experiment: EGFR Kinase Assay
Format: biochemical
Settings: test concentration of 2 μM (compounds without an IC50); read-out: EGFR percent inhibition
From the text: The EGFR kinase used was a fusion of Glutathione-S-Transferase (GST) and a PCR amplified intracellular portion of EGFR (NM_005228). The intracellular portion of EGFR started at nucleotide 2189 (corresponding to amino acid 667) and ended at the termination codon. The portion was PCR amplified with primers that added the lambda attB sequences to each end, recombined into an entry vector, then into a GST destination vector (as described in Gateway Technologies Manual by Invitrogen Corporation, Carlsbad, Calif.).
The destination vector was recombined in the DH10BAC strain of bacteria to produce a bacmid. The bacmid was transfected into Sf 9 cells and the supernatant containing the baculovirus was collected. The GSTEGFR protein was purified using large cultures of Sf 9 cells infected with stock virus. After an appropriate period of time, the cells were collected and lysed. The GSTEGFR was then purified from the lysate on Glutathione-Sepharose columns (as described by Amersham Biosciences, Buckinghamshire, United Kingdom).
The EGFR substrate was prepared by biotinylating polyGluTyr (128 mg) (Sigma, St. Louis, Mo.) in a 1×PBS buffer incubated together with a 12-fold molar excess of Sulfo-NHS-LC-Biotin on ice for at least 2 hrs. The free biotin was separated from the biotinylated polyGluTyr on a gel filtration column.
A mixture of a 10× kinase buffer (500 mM Tris at pH 8.0, 100 mM Magnesium Chloride and 1 mM Sodium Vanadate), DTT (1 mM final from 500 mM stock), ATP (5 μM final from 10 mM stock), biotinylated polyGluTyr (10 μg/μL stock), γ-^33P ATP (10 μCi/μL stock) and water was added to each well (90 μL/well) of a Streptavidin Flashplate (Perkin Elmer, Wellesley, M A).
Test compound in 100% DMSO (2 μL) was added to the appropriate wells. Diluted GSTEGFR (1:300 dilution in 50 mM Tris at pH 8.0 and 0.1% bovine serum albumin) (10 μL) was added to the wells to initiate the reactions.
The plates were incubated at 30° C. for 1 hr with shaking. The reacted contents were removed and the plates were sequentially washed three times with a 1×PBS stop buffer (300 μL without Magnesium and Calcium) and 100 mM EDTA. After the final wash, the same stop buffer (200 μL) was added to the wells. The plates were then sealed and read on the TopCount scintillation counter.
Test compounds were assayed in triplicate at 16 concentrations at half-log dilutions starting at 200 uM. A maximum and minimum signal for the assay was determined on each plate. The percent inhibition of a test compound was calculated according to the formula
For a series of test concentrations, the IC50 was derived by graphing percent inhibition against the log of the concentrations tested for a given compound. For those compounds without an IC50, the percent inhibition results are shown at a test concentration of 2 μM.

T1 sequence (P00533 669-1210 limits assumed): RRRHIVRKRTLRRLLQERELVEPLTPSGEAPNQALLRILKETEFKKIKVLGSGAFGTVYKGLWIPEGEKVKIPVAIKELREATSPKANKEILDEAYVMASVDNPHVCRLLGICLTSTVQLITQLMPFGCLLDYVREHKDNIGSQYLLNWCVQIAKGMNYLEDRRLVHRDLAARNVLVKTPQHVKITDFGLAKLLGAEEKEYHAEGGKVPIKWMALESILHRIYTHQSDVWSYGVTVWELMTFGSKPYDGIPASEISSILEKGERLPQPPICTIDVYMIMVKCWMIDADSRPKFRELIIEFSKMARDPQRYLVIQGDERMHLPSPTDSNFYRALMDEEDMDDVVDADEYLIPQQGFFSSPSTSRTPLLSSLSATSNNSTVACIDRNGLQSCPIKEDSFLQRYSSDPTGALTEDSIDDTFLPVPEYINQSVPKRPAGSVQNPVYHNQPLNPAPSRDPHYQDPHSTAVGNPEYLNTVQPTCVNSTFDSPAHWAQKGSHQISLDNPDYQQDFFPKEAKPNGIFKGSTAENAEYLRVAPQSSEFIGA

Cc1cc2c(F)c(Oc3ncnc4sc(C(=O)NCCN5CCOCC5)c(C)c34)ccc2[nH]1 [Cpd 19, 4-(4-fluoro-2-methyl-1H-indol-5-yloxy)-5-methyl-thieno[2,3-d]pyrimidine-6-carboxylic acid (2-morpholin-4-yl-ethyl)-amide]
inhibition at 2 µM: 10%
